# Entries after “also recorded” stand apart in the source; their conditions may differ.
# System: ROS
# Test: Cell free ROS assay with H2O2 and H2DCF indicator
# Conditions: free PEG added to C-GQDs (FIG. 18B)
# Method: The samples (C-GQDs, H-GQDs, S-GQDs and P-GQDs) were incubated with H2O2 in 10% fetal bovine serum (FBS) solution at 37° C. Chemically hydrolyzed 2,7-dichlorodihydrofluorescein diacetate (H2DCF-DA), yielding H2DCF, was used as a fluorescent indicator of ROS production. The increase in ROS over 90 min with 10 μM and 20 μM H2O2 in the presence and absence of GQDs were monitored. In the case of C-GQDs and H-GQDs incubated with 20 μM H2O2, the ROS production increased ˜3 and ˜4 times respectively (FIG. 7A). […] Thus, confirming again the ROS quenching ability of PEG. […] The H-GQDs produced more ROS than C-GQDs, likely because of more free-radical-susceptible hydroxyl groups on the surface generated by the hydrothermal treatment.
substance,measurement,value
polyethylene glycol [free PEG],ROS quenching by free PEG in solution along with C-GQD,did not quench the ROS produced in solution; also recorded: No significant quenching
